Source: patent US20110294843A1, “ADMINISTRATION SCHEME OF POLAR OPIOID METABOLITES FOR POST-OPERATIVE PAIN MANAGEMENT” (PAION UK Limited, priority 2008, published 2011)
Like-named read-outs stand apart in the source and are kept apart here.

How the values were obtained:
[1] = Partition coefficient (logP) between aqueous buffer and octanol; settings: phosphate/n-octanol
From the text: As stated above, the opioid metabolites according to the invention are polar metabolites. As understood hereinafter the term “polar” means a higher polarity as compared to the unpolar moφhine. The polar nature of a compound can be determined by measuring its partition coefficient between an aqueous buffer and an organic solvent such as octanol. […] This depends on the specific system.

[2] = tested on: patients following total knee-replacement surgery; experiment: M6G015 study: pain following total knee-replacement surgery; assay type: in vivo, human; settings: 10, 20, 30 mg/70 kg slow IV, PCA morphine allowed
Description: Patients received a single dose of study treatment 150 minutes after the administration of the nerve block. […] The complete study has recently been reported by Dahan et al. (Eur J Pain, 2008; 12(4): 403-411).

[3] = Pharmacokinetics of M6G at single and multiple intravenous doses in healthy volunteers; assay type: in vivo, human; settings: for MRT inf: read-out: MRT0-∞; for Vd: read-out: Vss
Description: Healthy male and female subjects were divided into two groups (A and B) with 12 in each. Group A received three single intravenous infusions of M6G over 5 mins at levels of 15, 30 and 45 mg/70 kg in random order, having taken 50 mg of naloxone orally 24 hrs beforehand. There was a seven-day wash-out period between each dose. Blood samples were taken pre-dose and at the following time-points: 3, 5, 15, 30 mins and 1, 2, 3, 4, 6, 12 and 24 hrs after the start of the infusion. Group, B received five, 15 mg/70 kg, intravenous infusions of M6G, each over five minutes, at 6-hourly intervals, having taken a 50 mg oral dose of naloxone 24 hrs before the first infusion. Blood samples were taken before each of the 5 doses, and at 3, 5, 15, 30 mins and at 1, 2, 3 and 4 hrs after the initiation of the 1st and 5th infusions and at 6 hrs after the 5th dose. Vital signs (supine blood pressure, pulse, respiratory rate and oral temperature), respiration rate, pulse oximetry and adverse events were monitored during the study. Plasma levels of M6G were measured using HPLC/ms/ms.

[4] = both sexes, human, plasma, intravenous, 15 mg/70 kg, multiple dose, Dose 1-15 mg, Geometric Mean
[5] = both sexes, human, plasma, intravenous, 15 mg/70 kg, multiple dose, Dose 1-15 mg, Mean
[6] = both sexes, human, plasma, intravenous, 15 mg/70 kg, multiple dose, Dose 1-15 mg, Median
[7] = both sexes, human, plasma, iv, 15 mg/70 kg, single 5 min iv infusion 15 mg, Geometric Mean

Question: Which logP [1] does the source give for `CN1CC[C@]23c4c5ccc(O)c4O[C@H]2[C@@H](OC2OC(C(=O)O)C(O)C(O)C2O)C=CC3[C@H]1C5` (stereo partly drawn) [M6G, (5α,6α)-7,8-Didehydro-4,5-epoxy-3-hydroxy-17-methylmorphinan-β-yl-β-D-glucopyranosiduronic acid] here?
Answer: The logP was -2.4.

Question: And the “patients' opinion of pain relief compared with placebo” value [2]?
Answer: Its value is “no statistically significant differences”.

Question: What about the “average peak concentrations higher following Dose 5 than Dose 1” value ([3]; 15 mg 6-hourly iv infusions) of the same compound?
Answer: Its value is “approximately 25%”.

Question: And the “dose proportionality of exposure (Cmax, AUC0-t, AUC0-∞)” value ([3]; 15, 30 and 45 mg single iv infusions)?
Answer: The value was “directly dose-proportional”.

Question: And the concentration at 6 h ([3]; both sexes, human, plasma, 15 mg/70 kg, 6 hours after each dose, 15 mg 6-hourly iv, read-out: trough levels)?
Answer: Its concentration at 6 h is 63.9 ± 16.5 ng/mL.

Question: And the clearance [3, 4]?
Answer: The clearance was 119 mL/min.

Question: And the AUC(0-t) ([3]; both sexes, human, plasma, intravenous, 15 mg/70 kg, multiple dose, Dose 1-15 mg, Geometric Mean, read-out: AUC0-6)?
Answer: The AUC(0-t) was 1910 ng·h/mL.

Question: And the AUC(0-inf) ([3]; both sexes, human, plasma, intravenous, 15 mg/70 kg, multiple dose, Dose 1-15 mg, Geometric Mean, read-out: AUC0-∞)?
Answer: Its AUC(0-inf) is 2110 ng·h/mL.

Question: And the Cmax ([3]; both sexes, human, plasma, intravenous, 15 mg/70 kg, multiple dose, Dose 1-15 mg, Geometric Mean, read-out: Cmax)?
Answer: The Cmax was 1840 ng/mL.

Question: What about the MRT inf [3, 4] of the same compound?
Answer: Its MRT inf is 2.07 h.

Question: What about the Vd [3, 4] of the same compound?
Answer: Its Vd is 14.7 L.

Question: What about the half-life ([3]; both sexes, human, plasma, intravenous, 15 mg/70 kg, multiple dose, Dose 1-15 mg, Geometric Mean, read-out: t1/2 (converted)) of the same compound?
Answer: The half-life was 1.71 h.

Question: What about the clearance [3, 5] of the same compound?
Answer: Its clearance is 119 mL/min.

Question: What about the AUC(0-t) ([3]; both sexes, human, plasma, intravenous, 15 mg/70 kg, multiple dose, Dose 1-15 mg, Mean, read-out: AUC0-6) of the same compound?
Answer: The AUC(0-t) was 1920 ng·h/mL.

Question: What about the AUC(0-inf) ([3]; both sexes, human, plasma, intravenous, 15 mg/70 kg, multiple dose, Dose 1-15 mg, Mean, read-out: AUC0-∞) of the same compound?
Answer: The AUC(0-inf) was 2130 ng·h/mL.

Question: What about the Cmax ([3]; both sexes, human, plasma, intravenous, 15 mg/70 kg, multiple dose, Dose 1-15 mg, Mean, read-out: Cmax) of the same compound?
Answer: The Cmax was 1980 ng/mL.

Question: And the MRT inf [3, 5]?
Answer: Its MRT inf is 2.1 h.

Question: What about the Vd [3, 5] of the same compound?
Answer: The Vd was 14.8 L.

Question: What about the half-life ([3]; both sexes, human, plasma, intravenous, 15 mg/70 kg, multiple dose, Dose 1-15 mg, Mean, read-out: t1/2 (converted)) of the same compound?
Answer: The half-life was 1.73 h.

Question: And the clearance [3, 6]?
Answer: The clearance was 113 mL/min.

Question: What about the AUC(0-t) ([3]; both sexes, human, plasma, intravenous, 15 mg/70 kg, multiple dose, Dose 1-15 mg, Median, read-out: AUC0-6) of the same compound?
Answer: The AUC(0-t) was 1950 ng·h/mL.

Question: And the AUC(0-inf) ([3]; both sexes, human, plasma, intravenous, 15 mg/70 kg, multiple dose, Dose 1-15 mg, Median, read-out: AUC0-∞)?
Answer: The AUC(0-inf) was 2210 ng·h/mL.

Question: What about the Cmax ([3]; both sexes, human, plasma, intravenous, 15 mg/70 kg, multiple dose, Dose 1-15 mg, Median, read-out: Cmax) of the same compound?
Answer: Its Cmax is 2090 ng/mL.

Question: What about the MRT inf [3, 6] of the same compound?
Answer: Its MRT inf is 2.17 h.

Question: What about the Vd [3, 6] of the same compound?
Answer: The Vd was 14.2 L.

Question: What about the half-life ([3]; both sexes, human, plasma, intravenous, 15 mg/70 kg, multiple dose, Dose 1-15 mg, Median, read-out: t1/2 (converted)) of the same compound?
Answer: The half-life was 1.65 h.

Question: And the AUC ([3]; both sexes, human, plasma, intravenous, 15 mg/70 kg, multiple dose, Dose 5-15 mg, Geometric Mean, read-out: AUC24-30)?
Answer: The AUC was 2070 ng·h/mL.

Question: And the AUC ([3]; both sexes, human, plasma, intravenous, 15 mg/70 kg, multiple dose, Dose 5-15 mg, Geometric Mean, read-out: AUC24-∞)?
Answer: The AUC was 2170 ng·h/mL.

Question: What about the Cmax ([3]; both sexes, human, plasma, intravenous, 15 mg/70 kg, multiple dose, Dose 5-15 mg, Geometric Mean, read-out: Cmax) of the same compound?
Answer: The Cmax was 2290 ng/mL.

Question: And the Vd ([3]; both sexes, human, plasma, intravenous, 15 mg/70 kg, multiple dose, Dose 5-15 mg, Geometric Mean)?
Answer: The Vd was 11.9 L.

Question: And the half-life ([3]; both sexes, human, plasma, intravenous, 15 mg/70 kg, multiple dose, Dose 5-15 mg, Geometric Mean, read-out: t1/2 (converted))?
Answer: Its half-life is 1.49 h.

Question: What about the AUC ([3]; both sexes, human, plasma, intravenous, 15 mg/70 kg, multiple dose, Dose 5-15 mg, Mean, read-out: AUC24-30) of the same compound?
Answer: The AUC was 2080 ng·h/mL.

Question: What about the AUC ([3]; both sexes, human, plasma, intravenous, 15 mg/70 kg, multiple dose, Dose 5-15 mg, Mean, read-out: AUC24-∞) of the same compound?
Answer: Its AUC is 2180 ng·h/mL.

Question: What about the Cmax ([3]; both sexes, human, plasma, intravenous, 15 mg/70 kg, multiple dose, Dose 5-15 mg, Mean, read-out: Cmax) of the same compound?
Answer: The Cmax was 2370 ng/mL.

Question: And the Vd ([3]; both sexes, human, plasma, intravenous, 15 mg/70 kg, multiple dose, Dose 5-15 mg, Mean)?
Answer: Its Vd is 12 L.

Question: What about the half-life ([3]; both sexes, human, plasma, intravenous, 15 mg/70 kg, multiple dose, Dose 5-15 mg, Mean, read-out: t1/2 (converted)) of the same compound?
Answer: Its half-life is 1.5 h.

Question: And the AUC ([3]; both sexes, human, plasma, intravenous, 15 mg/70 kg, multiple dose, Dose 5-15 mg, Median, read-out: AUC24-30)?
Answer: The AUC was 2090 ng·h/mL.

Question: What about the AUC ([3]; both sexes, human, plasma, intravenous, 15 mg/70 kg, multiple dose, Dose 5-15 mg, Median, read-out: AUC24-∞) of the same compound?
Answer: Its AUC is 2210 ng·h/mL.

Question: And the Cmax ([3]; both sexes, human, plasma, intravenous, 15 mg/70 kg, multiple dose, Dose 5-15 mg, Median, read-out: Cmax)?
Answer: Its Cmax is 2370 ng/mL.

Question: And the Vd ([3]; both sexes, human, plasma, intravenous, 15 mg/70 kg, multiple dose, Dose 5-15 mg, Median)?
Answer: The Vd was 12.2 L.

Question: And the half-life ([3]; both sexes, human, plasma, intravenous, 15 mg/70 kg, multiple dose, Dose 5-15 mg, Median, read-out: t1/2 (converted))?
Answer: The half-life was 1.56 h.

Question: What about the AUC(0-t) ([3]; both sexes, human, plasma, intravenous, 15 mg/70 kg, single 5 min infusion 15 mg/70 kg, read-out: AUC0-t, Geometric LS means) of the same compound?
Answer: The AUC(0-t) was 1760 ng·h/mL.

Question: And the AUC(0-inf) ([3]; both sexes, human, plasma, intravenous, 15 mg/70 kg, single 5 min infusion 15 mg/70 kg, read-out: AUC0-∞, Geometric LS means)?
Answer: The AUC(0-inf) was 1880 ng·h/mL.

Question: And the Cmax ([3]; both sexes, human, plasma, intravenous, 15 mg/70 kg, single 5 min infusion 15 mg/70 kg, read-out: Cmax, Geometric LS means)?
Answer: Its Cmax is 1740 ng/mL.

Question: What about the AUC(0-t) ([3]; both sexes, human, plasma, intravenous, 30 mg/70 kg, single 5 min infusion 30 mg/70 kg, read-out: AUC0-t, Geometric LS means) of the same compound?
Answer: The AUC(0-t) was 3880 ng·h/mL.

Question: What about the AUC(0-inf) ([3]; both sexes, human, plasma, intravenous, 30 mg/70 kg, single 5 min infusion 30 mg/70 kg, read-out: AUC0-∞, Geometric LS means) of the same compound?
Answer: The AUC(0-inf) was 3970 ng·h/mL.

Question: What about the Cmax ([3]; both sexes, human, plasma, intravenous, 30 mg/70 kg, single 5 min infusion 30 mg/70 kg, read-out: Cmax, Geometric LS means) of the same compound?
Answer: Its Cmax is 3700 ng/mL.

Question: What about the AUC(0-t) ([3]; both sexes, human, plasma, intravenous, 45 mg/70 kg, single 5 min infusion 45 mg/70 kg, read-out: AUC0-t, Geometric LS means) of the same compound?
Answer: The AUC(0-t) was 5750 ng·h/mL.

Question: And the AUC(0-inf) ([3]; both sexes, human, plasma, intravenous, 45 mg/70 kg, single 5 min infusion 45 mg/70 kg, read-out: AUC0-∞, Geometric LS means)?
Answer: The AUC(0-inf) was 5850 ng·h/mL.

Question: And the Cmax ([3]; both sexes, human, plasma, intravenous, 45 mg/70 kg, single 5 min infusion 45 mg/70 kg, read-out: Cmax, Geometric LS means)?
Answer: The Cmax was 5720 ng/mL.

Question: What about the clearance [3, 7] of the same compound?
Answer: The clearance was 131 mL/min.

Question: And the AUC(0-inf) ([3]; both sexes, human, plasma, iv, 15 mg/70 kg, single 5 min iv infusion 15 mg, Geometric Mean, read-out: AUC0-∞)?
Answer: The AUC(0-inf) was 1910 ng·h/mL.

Question: What about the Cmax ([3]; both sexes, human, plasma, iv, 15 mg/70 kg, single 5 min iv infusion 15 mg, Geometric Mean, read-out: Cmax) of the same compound?
Answer: Its Cmax is 1750 ng/mL.

Question: And the MRT inf [3, 7]?
Answer: Its MRT inf is 1.64 h.

Question: And the Vd [3, 7]?
Answer: Its Vd is 12.9 L.

Question: And the half-life ([3]; both sexes, human, plasma, iv, 15 mg/70 kg, single 5 min iv infusion 15 mg, Geometric Mean, read-out: t½ (converted))?
Answer: The half-life was 1.46 h.

Question: What about the clearance ([3]; both sexes, human, plasma, iv, 15 mg/70 kg, single 5 min iv infusion 15 mg, Mean) of the same compound?
Answer: Its clearance is 133 mL/min.

Question: What about the AUC(0-inf) ([3]; both sexes, human, plasma, iv, 15 mg/70 kg, single 5 min iv infusion 15 mg, Mean, read-out: AUC0-∞) of the same compound?
Answer: Its AUC(0-inf) is 1930 ng·h/mL.

Question: And the Cmax ([3]; both sexes, human, plasma, iv, 15 mg/70 kg, single 5 min iv infusion 15 mg, Mean, read-out: Cmax)?
Answer: Its Cmax is 1860 ng/mL.
